Measurements reported in US20240041042A1, “1-(PYRIDYL)-5-AZINYLPYRAZOLE DERIVATIVES, AND THEIR USE FOR CONTROL OF UNDESIRED PLANT GROWTH” (Bayer Aktiengesellschaft, priority 2020, published 2024).
Like-named read-outs stand apart in the source and are kept apart here.

Assays:
Type in all cases: in vivo
[1] = system: Abutilon theophrasti (ABUTH); test: Pre-emergence herbicidal action against ABUTH; settings: 100% = plants have died
How it was run: (§1)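 Application rates ran to 320 g/ha or lower, with several dosages tested on the same weeds. The compound, as wettable powder or emulsion concentrate, is sprayed pre-emergence onto soil over sown seeds; greenhouse growth follows, and effect is rated visually after roughly 3 weeks.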

[2] = system: Alopecurus myosuroides (ALOMY); test: Pre-emergence herbicidal action against ALOMY; settings: scored visually after about 3 weeks, 100% = plants have died
How it was run: as §1

[3] = system: Amaranthus retroflexus (AMARE); test: Pre-emergence herbicidal action against AMARE; settings: visual scoring after about 3 weeks vs untreated controls
How it was run: as §1

Avena fatua (AVEFA) [4] = test: Pre-emergence herbicidal action against AVEFA; settings: visual scoring after about 3 weeks vs untreated controls
How it was run: as §1

[5] = system: Echinochloa crus-galli (ECHCG); test: Pre-emergence herbicidal action against ECHCG
How it was run: as §1

Lolium rigidum (LOLRI) [6] = test: Pre-emergence herbicidal action against LOLRI
How it was run: as §1

[7] = system: Matricaria inodora (MATIN); test: Pre-emergence herbicidal action against MATIN
How it was run: as §1

[8] = system: Pharbitis purpurea (PHBPU); test: Pre-emergence herbicidal action against PHBPU
How it was run: as §1

[9] = system: Polygonum convolvulus (POLCO); test: Pre-emergence herbicidal action against POLCO
How it was run: as §1

Setaria viridis (SETVI) [10] = test: Pre-emergence herbicidal action against SETVI
How it was run: as §1

[11] = system: Verconica persica (VERPE); test: Pre-emergence herbicidal action against VERPE
How it was run: as §1

Viola tricolor (VIOTR) [12] = test: Pre-emergence herbicidal action against VIOTR
How it was run: as §1

[13] = system: Abutilon theophrasti (ABUTH); test: Post-emergence herbicidal action against ABUTH; settings: visual rating about 3 weeks after treatment vs untreated controls (100% = plants have died, 0% = like control plants)
How it was run: (§2)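 Doses of 320 g/ha or lower, suffixes a, b and c marking different dosages, were applied post-emergence at the one-leaf stage in 600 l/ha water with 0.5% additive. Damage was assessed visually after about 3 weeks in the greenhouse.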

[14] = system: Alopecurus myosuroides (ALOMY); test: Post-emergence herbicidal action against ALOMY; settings: visual rating about 3 weeks after treatment vs untreated controls (100% = plants have died, 0% = like control plants)
How it was run: as §2

[15] = system: Amaranthus retroflexus (AMARE); test: Post-emergence herbicidal action against AMARE
How it was run: as §2

Avena fatua (AVEFA) [16] = test: Post-emergence herbicidal action against AVEFA; settings: visual rating about 3 weeks after treatment
How it was run: as §2

[17] = system: Echinochloa crus-galli (ECHCG); test: Post-emergence herbicidal action against ECHCG
How it was run: as §2

Lolium rigidum (LOLRI) [18] = test: Post-emergence herbicidal action against LOLRI
How it was run: as §2

[19] = system: Matricaria inodora (MATIN); test: Post-emergence herbicidal action against MATIN
How it was run: as §2

[20] = system: Pharbitis purpurea (PHBPU); test: Post-emergence herbicidal action against PHBPU
How it was run: as §2

[21] = system: Polygonum convolvulus (POLCO); test: Post-emergence herbicidal action against POLCO
How it was run: as §2

Setaria viridis (SETVI) [22] = test: Post-emergence herbicidal action against SETVI
How it was run: as §2

[23] = system: Verconica persica (VERPE); test: Post-emergence herbicidal action against VERPE
How it was run: as §2

Oryza sativa (ORYSA) = settings: crop plant compatibility
How it was run: (§3)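 Visual rating (% effect vs. untreated plants; 100% = plant death) made about 3 weeks after treatment. Plants had been sprayed at one-leaf stage, 2–3 weeks post-sowing, with aqueous WP/EC preparations containing 0.5% additive, 600 l/ha water volume; a, b, c mark dose levels.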

Zea mays (ZEAMX) = settings: 20 g/ha, ZEAMX, effect in comparison to untreated controls
How it was run: as §3

Viola tricolor (VIOTR) [24] = test: Post-emergence herbicidal action against VIOTR
How it was run: as §2

[25] = Dosage column 320 g/ha (title prints 3200 g/ha), scored visually after about 3 weeks
[26] = 80 g/ha, visual rating about 3 weeks after treatment vs untreated controls (100% = plants have died, 0% = like control plants)

COC(=O)[C@H](C)COC(=O)COc1nn(-c2ccccn2)c(-c2ccc(F)nc2)c1Br [Example I-76]
Pre-emergence action against ABUTH [1, 25]: 80%
Pre-emergence action against ALOMY ([2]; 80 g/ha): 90%
Pre-emergence action against ALOMY ([2]; 320 g/ha): 100%
Pre-emergence action against AMARE in % ([3]; 80 g/ha): 90%
Pre-emergence action against AMARE in % ([3]; 320 g/ha): 100%
Pre-emergence action against AVEFA in % (Avena fatua (AVEFA) [4]; 320 g/ha): 90%
Pre-emergence action against ECHCG in % ([5]; dosage 320 g/ha): 90%
Pre-emergence action against LOLRI in % (Lolium rigidum (LOLRI) [6]; dosage 80 g/ha): 90%
Pre-emergence action against LOLRI in % (Lolium rigidum (LOLRI) [6]; dosage 320 g/ha): 100%
Pre-emergence action against MATIN in % ([7]; dosage 80 g/ha): 90%
Pre-emergence action against MATIN in % ([7]; dosage 320 g/ha): 90%
Pre-emergence action against PHBPU in % ([8]; dosage 320 g/ha): 90%
Pre-emergence action against POLCO in % ([9]; dosage 80 g/ha): 80%
Pre-emergence action against POLCO in % ([9]; dosage 320 g/ha): 90%
Pre-emergence action against SETVI in % (Setaria viridis (SETVI) [10]; dosage 80 g/ha): 80%
Pre-emergence action against SETVI in % (Setaria viridis (SETVI) [10]; dosage 320 g/ha): 100%
Pre-emergence action against VERPE in % ([11]; dosage 80 g/ha): 100%
Pre-emergence action against VERPE in % ([11]; dosage 320 g/ha): 100%
Pre-emergence action against VIOTR in % (Viola tricolor (VIOTR) [12]; 320 g/ha, Viola tricolor): 100%
Pre-emergence action against VIOTR in % (Viola tricolor (VIOTR) [12]; dosage 80 g/ha): 100%
Post-emergence action against ABUTH in % ([13]; 80 g/ha): 90%
Post-emergence action against ALOMY in % ([14]; 80 g/ha): 100%
Post-emergence action against AMARE in % [15, 26]: 80%
Post-emergence action against AVEFA in % (Avena fatua (AVEFA) [16]; 80 g/ha): 90%
Post-emergence action against ECHCG in % ([17]; dosage 80 g/ha): 90%
Post-emergence action against LOLRI in % (Lolium rigidum (LOLRI) [18]; dosage 80 g/ha): 80%
Post-emergence action against MATIN in % ([19]; dosage 80 g/ha): 80%
Post-emergence action against PHBPU in % ([20]; dosage 80 g/ha): 90%
Post-emergence action against POLCO in % ([21]; dosage 80 g/ha): 80%
Post-emergence action against SETVI in % (Setaria viridis (SETVI) [22]; dosage 80 g/ha): 90%
Post-emergence action against VERPE in % ([23]; dosage 80 g/ha): 80%
Post-emergence action against ORYSA in % (Oryza sativa (ORYSA); 20 g/ha, effect vs untreated controls): 0%
Post-emergence action against ORYSA in % (Oryza sativa (ORYSA); 80 g/ha, effect in comparison to untreated controls): 0%
Post-emergence action against ZEAMX in % (crop plant compatibility) (Zea mays (ZEAMX)): 20%

C[C@@H](Oc1nn(-c2ccccn2)c(-c2cncc(F)c2)c1Cl)C(=O)O [Example I-218]
Pre-emergence action against ABUTH ([1]; 80 g/ha, scored visually after about 3 weeks vs untreated controls, 0% = like control plants): 80%
Pre-emergence action against ABUTH [1, 25]: 90%
Pre-emergence action against ALOMY ([2]; 80 g/ha): 90%
Pre-emergence action against ALOMY ([2]; 320 g/ha): 90%
Pre-emergence action against AMARE in % ([3]; 80 g/ha): 100%
Pre-emergence action against AMARE in % ([3]; 320 g/ha): 100%
Pre-emergence action against AVEFA in % (Avena fatua (AVEFA) [4]; 80 g/ha): 80%
Pre-emergence action against AVEFA in % (Avena fatua (AVEFA) [4]; 320 g/ha): 90%
Pre-emergence action against ECHCG in % ([5]; dosage 80 g/ha): 90%
Pre-emergence action against ECHCG in % ([5]; dosage 320 g/ha): 100%
Pre-emergence action against LOLRI in % (Lolium rigidum (LOLRI) [6]; dosage 80 g/ha): 100%
Pre-emergence action against LOLRI in % (Lolium rigidum (LOLRI) [6]; dosage 320 g/ha): 100%
Pre-emergence action against MATIN in % ([7]; dosage 80 g/ha): 90%
Pre-emergence action against MATIN in % ([7]; dosage 320 g/ha): 100%
Pre-emergence action against PHBPU in % ([8]; dosage 80 g/ha): 90%
Pre-emergence action against PHBPU in % ([8]; dosage 320 g/ha): 90%
Pre-emergence action against POLCO in % ([9]; dosage 80 g/ha): 90%
Pre-emergence action against POLCO in % ([9]; dosage 320 g/ha): 90%
Pre-emergence action against SETVI in % (Setaria viridis (SETVI) [10]; dosage 80 g/ha): 90%
Pre-emergence action against SETVI in % (Setaria viridis (SETVI) [10]; dosage 320 g/ha): 100%
Pre-emergence action against VERPE in % ([11]; dosage 80 g/ha): 90%
Pre-emergence action against VERPE in % ([11]; dosage 320 g/ha): 100%
Pre-emergence action against VIOTR in % (Viola tricolor (VIOTR) [12]; 320 g/ha, Viola tricolor): 100%
Pre-emergence action against VIOTR in % (Viola tricolor (VIOTR) [12]; dosage 80 g/ha): 100%
Post-emergence action against ABUTH in % ([13]; 80 g/ha): 80%
Post-emergence action against ABUTH in % ([13]; 320 g/ha): 80%
Post-emergence action against ALOMY in % ([14]; 320 g/ha): 90%
Post-emergence action against AMARE in % [15, 26]: 80%
Post-emergence action against AMARE in % ([15]; 320 g/ha, visual rating about 3 weeks after treatment): 80%
Post-emergence action against AVEFA in % (Avena fatua (AVEFA) [16]; 80 g/ha): 80%
Post-emergence action against AVEFA in % (Avena fatua (AVEFA) [16]; 320 g/ha): 90%
Post-emergence action against ECHCG in % ([17]; dosage 80 g/ha): 80%
Post-emergence action against ECHCG in % ([17]; dosage 320 g/ha): 90%
Post-emergence action against LOLRI in % (Lolium rigidum (LOLRI) [18]; dosage 80 g/ha): 80%
Post-emergence action against LOLRI in % (Lolium rigidum (LOLRI) [18]; dosage 320 g/ha): 90%
Post-emergence action against MATIN in % ([19]; dosage 320 g/ha): 80%
Post-emergence action against PHBPU in % ([20]; dosage 80 g/ha): 90%
Post-emergence action against PHBPU in % ([20]; dosage 320 g/ha): 100%
Post-emergence action against POLCO in % ([21]; dosage 320 g/ha): 80%
Post-emergence action against SETVI in % (Setaria viridis (SETVI) [22]; dosage 80 g/ha): 80%
Post-emergence action against SETVI in % (Setaria viridis (SETVI) [22]; dosage 320 g/ha): 80%
Post-emergence action against VERPE in % ([23]; 320 g/ha, VERPE): 80%
Post-emergence action against VERPE in % ([23]; dosage 80 g/ha): 80%
Post-emergence action against VIOTR in % (Viola tricolor (VIOTR) [24]; 80 g/ha): 80%
Post-emergence action against VIOTR in % (Viola tricolor (VIOTR) [24]; 320 g/ha): 80%
